Laboratory results taken from patent US9107814B2, “Micelle composition of polymer and passenger drug” (Wisconsin Alumni Research Foundation, priority 2005, dated 2015).

Tests used:
[1] = different species; cited from earlier work
[2] = loading of rapamycin and geldanamycin into PEG-DSPE and PEG-PCL micelles; assay type: physicochemical; conditions: micelle solution against water solubility
From the text: The final solvent to water ratio is between about 0.1 and about 5, preferably between about 0.5 and about 4, and more preferably about 2. The micelle solution should be delivered at a rate of between about 2 s/drop and about 60 s/drop, preferably between about 5 s/drop and about 30 s/drop, and more preferably between about 10 s/drop and about 20 s/drop.

Procedure for physchem: The octanol-water partition coefficient of geldanamycin was determined by microemulsion electrokinetic chromatography.
Running buffer was prepared by titration of 25-mM sodium phosphate monobasic with 50-mM sodium tetraborate to pH 7.00, and 1.44 g of sodium dodecyl sulfate, 6.49 g of 1-butanol, and 0.82 g of heptane were made up to 100 ml with phosphate-borate buffer. The running buffer was ultrasonicated for 30 min in a closed 250-ml flask in ice water (G112SP1 Special Ultrasonic Cleaner, Laboratory Supplies Company Inc., Hicksville, N.Y.). […] Compounds and standards (n=3) were dissolved in the running buffer (0.05 mg/ml) with 0.5 μL/ml of nitromethane and 0.5 μL/ml of 1-phenyldodecane by ultrasonication (10 min) in a closed tube and centrifuged (16000×g, 3 min) to degas. A BioFocus 3000 capillary electrophoresis system (Bio-Rad, Hercules, Calif.) equipped with a 50-μm ID×37-cm uncoated fused-silica column (Polymicron Technologies LLC, Phoenix, Ariz.) was used for MEEKC experiments. The column was prewashed with 1-M NaOH for 5 min and before runs with 0.1-M NaOH for 1 min, ddH2O for 1 min, and running buffer for 1 min at 100 psi (690 kPa). Running conditions were 10 kV (ca. 30-35 μA, 30 min/run) at 20° C. with 1-psi·s injections (6.9 kPa·s) and detection at 210 and 232 nm. Log Po/w and retention factors, k′, were calculated using the equations:
[formula] [formula] where tr, t0, and tme are retention times of the prodrug, nitromethane, and 1-phenyldodecane, respectively. Fitting parameters a and b were determined by linear regression of known standards: pyridine, phenol, benzoic acid, anisole, benzene, toluene, dodecanoic acid, benzopyrene, and pyrene (R^2=0.996, Excel® 2003, Microsoft Corp.).

chromatographic logP (physchem): 3.77
increase in solubility [2]: 1900 fold
SMILES: CO[C@H]1C[C@@H]2CC[C@@H](C)[C@@](O)(O2)C(=O)C(=O)N2CCCC[C@H]2C(=O)O[C@H]([C@H](C)C[C@@H]2CC[C@@H](O)[C@H](OC)C2)CC(=O)[C@H](C)/C=C(\C)[C@@H](O)[C@@H](OC)C(=O)[C@H](C)C[C@H](C)/C=C/C=C/C=C/1C [Rapamycin]
half-life [1]: more than 5 hours
